Peptide text beside a SMILES is read from it. * marks the point of attachment. tBu = CC(C)(C)*
Legend:
panel of tasters = assay: Sensory evaluation of sweetness: taste panel matches aqueous solutions of the compound to sucrose standard solutions (sucrose equivalency); assay type: in vivo; details: for Sucrose Equivalent: aqueous solution
Excerpt: A taste procedure for determination of sweetness merely involves the determination of sucrose equivalency. Sucrose equivalence for sweeteners are readily determined. The amount of a sweetener that is equivalent to a given weight percent sucrose can be determined by having a panel of tasters taste solutions of a sweetener at known concentrations and match its sweetness to standard solutions of sucrose. The following sensory evaluations were obtained by a panel of experts using known weight percent aqueous solutions of the above compound matched to sucrose standard solutions as previously described.

[1] = as reported in the literature; cited from earlier work
[2] = 0.005% concentration of compound
[3] = 0.01% concentration of compound
[4] = 0.025% concentration of compound
[5] = 0.0025% concentration of compound
[6] = 0.05% concentration of compound
[7] = 0.02% concentration of compound
[8] = 0.04% concentration of compound

Row | SMILES | Sweetness ratio (Compound:Sucrose) (panel of tasters; [2]) | Sucrose Equivalent (panel of tasters; [2]) [%] | Sweetness ratio (Compound:Sucrose) (panel of tasters; [3]) | Sucrose Equivalent (panel of tasters; [3]) [%] | Sweetness ratio (Compound:Sucrose) (panel of tasters; [4]) | Sucrose Equivalent (panel of tasters; [4]) [%] | further results
1 | COC(=O)[C@H](COC1(C)CC=CCC1)NC(=O)[C@@H](N)CC(=O)O (stereo partly drawn) [Example 7, L-aspartyl-O-(1-methylcyclohex-3-enyl)-L-serine methyl ester] | 400 | 2 | 250 | 2.5 | 160 | 4 | –
2 | COC(=O)[C@H](COC1CCCC1(C)C)NC(=O)[C@@H](N)CC(=O)O (stereo partly drawn) [2,2-dimethylcyclopentyl, α-L-aspartyl-O-(2,2-dimethylcyclopentyl)-L-serine methyl ester] | 600 | 3 | 530 | 5.3 | 360 | 9 | –
3 | COC(=O)[C@H](COC1C(C)(C)CCC1(C)C)NC(=O)[C@@H](N)CC(=O)O [Example 10, α-L-Aspartyl-O-2,2,5,5-tetramethylcyclopentyl-L-serine methyl ester] | 1000 | 5 | 800 | 8 | – | – | Sweetness ratio (Compound:Sucrose) (panel of tasters; [5]): 1200; Sucrose Equivalent (panel of tasters; [5]): 3%
4 | CCOC(=O)[C@H](COC1(C)CCCC1)NC(=O)[C@@H](N)CC(=O)O [α-L-Aspartyl-O-(1-methylcyclopentyl)-L-serine ethyl ester] | – | – | – | – | – | – | sweetness equivalent (panel of tasters; in vivo): 150 x sucrose
5 | COC(=O)[C@H](COC1CCCCC1C)NC(=O)[C@@H](N)CC(=O)O (stereo partly drawn) [2-cis-methylcyclohexyl, α-L-aspartyl-O-(2-methylcyclohexyl)-L-serine methyl ester] | 360 | 1.8 | 320 | 3.2 | 240 | 6 | –
6 | COC(=O)[C@H](COC1(C)CCC1)NC(=O)[C@@H](N)CC(=O)O [Example 3, L-aspartyl-O-(1-methylcyclobutyl)-L-serine methyl ester] | – | – | 200 | 2 | – | – | Sweetness ratio (Compound:Sucrose) (panel of tasters; [6]): 160; Sucrose Equivalent (panel of tasters; [6]): 8%
7 | CCC(C)(C)OC[C@H](NC(=O)[C@@H](N)CC(=O)O)C(=O)OC [tert. C5 H11, L-aspartyl-O-t-amyl-L-serine methyl ester] | – | – | – | – | – | – | Sucrose Equivalent (Table 2, sweetness values of alkyl ethers) [1]: 230
8 | COC(=O)[C@H](COC(C)(C)C1CCC(C)CC1)NC(=O)[C@@H](N)CC(=O)O (stereo partly drawn) [Example 8D, α-L-aspartyl-O-[1,1-dimethyl-1-(4-methylcyclohexyl)methyl]-L-serine methyl ester] | – | – | – | – | 240 | 6 | Sucrose Equivalent (Sensory Evaluations, Example 8) (panel of tasters; 0.01% concentration): 2.2; Sucrose Equivalent (Sensory Evaluations, Example 8) (panel of tasters; 0.025% concentration): 5.2; Sweetness ratio (Compound:Sucrose) (panel of tasters; [6]): 220; Sucrose Equivalent (panel of tasters; [6]): 11%
9 | COC(=O)[C@H](CO[C@@]1(C)CCCC[C@H]1C)NC(=O)[C@@H](N)CC(=O)O (single isomer, unassigned) [Example 4 CIS ISOMER, L-aspartyl-O-(cis-1,2-dimethylcyclohexyl)-L-serine methyl ester] | 400 | 2.0 | 400 | 4.0 | – | – | Sucrose Equivalent (panel of tasters; 0.005% concentration of compound, listed as Cis-1,2-dimethylcyclohexyl): 2%; Sucrose Equivalent (panel of tasters; 0.01% concentration of compound, listed as Cis-1,2-dimethylcyclohexyl): 4%; Sweetness ratio (Compound:Sucrose) (panel of tasters; [7]): 350; Sucrose Equivalent (panel of tasters; [7]): 7.0%; Sucrose Equivalent (panel of tasters; 0.02% concentration of compound, listed as Cis-1,2-dimethylcyclohexyl): 7%
10 | COC(=O)[C@H](COC1(C)CCCCCC1)NC(=O)[C@@H](N)CC(=O)O [Example 12, α-L-aspartyl-O-(1-methyl-cycloheptyl)-L-serine methyl ester] | – | – | 200 | 2 | – | – | Sweetness ratio (Compound:Sucrose) (panel of tasters; [6]): 120; Sucrose Equivalent (panel of tasters; [6]): 6%
11 | COC(=O)[C@H](COC1CC2CCC1(C)C2(C)C)NC(=O)[C@@H](N)CC(=O)O (stereo partly drawn) [Example 11, α-L-Aspartyl-O-1-bornyl-L-serine methyl ester] | 200 | 1 | 250 | 2.5 | 180 | 4.5 | –
12 | COC(=O)[C@H](COC1(C)CCCC1)NC(=O)[C@@H](N)CC(=O)O [I, L-aspartyl-O-(1-methylcyclopentyl)-L-serine methyl ester] | 500 | 2.5 | 500 | 5 | 400 | 10 | Sucrose Equivalent (panel of tasters; [6]): 12%; temporal and sensory qualities (panel of tasters; determined by the panel of experts): excellent temporal and sensory qualities
13 | COC(=O)[C@H](COCCC12C=CC(CC1)C2)NC(=O)[C@@H](N)CC(=O)O (stereo partly drawn) [2-(4-norbornenyl)ethyl, α-L-Aspartyl-O-[2-(4-norbornenyl)ethyl]-L-serine methyl ester] | – | – | – | – | – | – | Sweetness ratio (Compound:Sucrose) (panel of tasters; [6]): 117; Sucrose Equivalent (panel of tasters; [6]): 5.8%
14 | COC(=O)[C@H](COC(C)(C)C1CC=C(C)CC1)NC(=O)[C@@H](N)CC(=O)O (stereo partly drawn) [Example 8C, α-L-aspartyl-O-[1,1-dimethyl-1-(4-methylcyclohex-3-enyl)methyl]-L-serine methyl ester] | – | – | 220 | 2.2 | 208 | 5.2 | –
15 | COC(=O)[C@H](COC1(C)CCCCC1)NC(=O)[C@@H](N)CC(=O)O [Example 2, L-aspartyl-O-(1-methylcyclohexyl)-L-serine methyl ester] | 400 | 2 | 450 | 4.5 | 340 | 8.5 | –
16 | COC(=O)[C@H](COC1CCCC1C)NC(=O)[C@@H](N)CC(=O)O (stereo partly drawn) [trans-2-methylcyclopentyl, L-aspartyl-[O-(2-methylcyclopentyl)]-L-serine methyl ester] | – | – | 300 | 3 | 212 | 5.3 | –
17 | COC(=O)[C@H](CO[C@]1(C)CCCC[C@H]1C)NC(=O)[C@@H](N)CC(=O)O (single isomer, unassigned) [Example 4 TRANS ISOMER, L-aspartyl-O-(trans-1,2-dimethylcyclohexyl)-L-serine methyl ester] | 300 | 1.5 | 300 | 3.0 | – | – | Sucrose Equivalent (panel of tasters; 0.01% concentration of compound, listed as trans-1,2-dimethylcyclohexyl): 3%; Sweetness ratio (Compound:Sucrose) (panel of tasters; [7]): 250; Sucrose Equivalent (panel of tasters; [7]): 5.0%; Sucrose Equivalent (panel of tasters; 0.02% concentration of compound, listed as trans-1,2-dimethylcyclohexyl): 5%
18 | COC(=O)[C@H](COC1CCCCC1)NC(=O)[C@@H](N)CC(=O)O [cyclohexyl, α-L-aspartyl-O-(cyclohexyl)-L-serine methyl ester] | – | – | 120 | 1.2 | 127 | 3.2 | –
19 | COC(=O)[C@H](COC(C)(C)C)NC(=O)[C@@H](N)CC(=O)O [t-butyl, L-aspartyl-O-t-butyl-L-serine methyl ester, reference compound] (H-Asp-Ser(tBu)-OMe) | – | – | – | – | – | – | Sucrose Equivalent (Table 2, sweetness values of alkyl ethers) [1]: 140; Sweetness ratio (Compound:Sucrose) (panel of tasters; [6]): 120; Sucrose Equivalent (panel of tasters; [6]): 6%
20 | COC(=O)[C@H](COC1CCCC1)NC(=O)[C@@H](N)CC(=O)O [cyclopentyl, α-L-aspartyl-O-(cyclopentyl)-L-serine methyl ester] | 300 | 1.5 | 230 | 2.3 | 180 | 4.5 | –
21 | COC(=O)[C@H](COCCC1CC2CCC1C2)NC(=O)[C@@H](N)CC(=O)O (stereo partly drawn) [2-norbornylethyl, α-L-Aspartyl-O-2-norbornylethyl-L-serine methyl ester] | – | – | – | – | – | – | Sweetness ratio (Compound:Sucrose) (panel of tasters; [8]): 105; Sucrose Equivalent (panel of tasters; [8]): 4.2%
22 | CCC1(OC[C@H](NC(=O)[C@@H](N)CC(=O)O)C(=O)OC)CCCC1 [Example 5, L-aspartyl-O-(1-ethylcyclopentyl)-L-serine methyl ester] | 400 | 2 | 400 | 4 | – | – | Sweetness ratio (Compound:Sucrose) (panel of tasters; [7]): 300; Sucrose Equivalent (panel of tasters; [7]): 6%

Source: patent US4622417A, “L-aminodicarboxylic-(O-cycloalkyl)-L-aminocarboxylate alkyl ester sweeteners” (General Foods Corporation, priority 1984, dated 1986)
